Source: PubChem BioAssay AID1919003 (Molecular Pharmacology Branch, DTP, NCI, 2023)

System: 786-0 complex spheroids with HUVEC/MSC, growth % test/control
Assay: Anticancer human tumor 786-0 cell line growth inhibition [AhR];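 also: compound exposure lasted seven days before the read-out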
Conditions: for IC50: curve of first compound; for viability, T/C: stronger effect = lower value
Description: Multicellular complex tumor spheroid response to aryl hydrocarbon receptor antagonists in combination with a variety of drugs and investigational agents in selected tumor cell lines
The current study was undertaken to assess response to aryl hydrocarbon receptor antagonists in combination with standard-of-care drugs and investigational agents in solid tumor complex spheroid models. Complex spheroids include a stromal component modeled by human endothelial cells (HUVEC) and fibroblasts modeled by human mesenchymal stem cells (MSCs). The concentration ranges selected for each drug and investigational agent were based upon clinically achievable concentrations if the clinical Cmax of the agent was known.
Compounds. The drugs and investigational agents: BAY 2416964 (NSC825713), GNF351 (NSC835774), CH-223191 (NSC835775), CPI-455 (NSC825282), aza-TdCyd (NSC777586), decitabine (NSC127716), belinostat (NSC758774), entinostat (NSC756642), pevonedistat (NSC761192), tazemetostat (NSC777109), talazoparib (NSC765396), olaparib (NSC753686), selinexor (NSC780203), nedisertib (M3814, NSC802822), bortezomib (NSC756655), venetoclax (NSC766270), doxorubicin (NSC123127), elimusertib (BAY189344, NSC800525), ceralasertib (AZD6738, NSC777638), TAK-243 (NSC785004), alisertib (NSC759677), etoposide (NSC141540), topotecan (NSC609699), eribulin (NSC707389), gemcitabine (NSC613327), carboplatin (NSC241240), cisplatin (NSC119875), and SN-38 (NSC673596) were obtained from the National Cancer Institute (NCI) Developmental Therapeutics Program Chemical Repository (32). The FDA-approved anticancer drug set is available from the Developmental Therapeutics Program at https://dtp.cancer.gov/organization/dscb/obtaining/available plates.htm. […] The stock solutions were prepared in dimethyl sulfoxide (DMSO, Sigma-Aldrich, St. Louis, MO, cat. D2650), except for the platinum compounds which were prepared in saline (Quality Biological, Gaithersburg, MD, cat. 114-055-101), at 800-fold the tested concentration and stored at -70 degrees C prior to their use. All drugs and investigational agents were tested over a range starting from a high concentration at or near the clinical Cmax and decreasing in half-log increments. If the clinical Cmax for an agent had not been determined, the highest concentration tested was 10 microM (Table 1).
Cell Culture. All cells were maintained in an incubator at 37 degrees C and 5% CO2 with 95% humidity. The PDC lines were cultured according to standard operating procedures established by the NCI PDMR (https://pdmr.cancer.gov). Briefly, all PDCs were thawed and cultured in Matrigel-coated flasks prepared with a working solution of 1X Ham's F-12 nutrient mix, without supplementation (Invitrogen, Waltham, MA, cat. 11765054), 100 U/mL penicillin-streptomycin (Invitrogen, cat. 15140122), and 2.5% Matrigel (Corning Inc., Corning, NY, cat. 354248) for the first three passages. All PDCs were cultured in complete DMEM/F-12 media containing advanced DMEM/F-12 (Invitrogen, cat. 12634028), 4.9% defined fetal bovine serum, heat inactivated (HyClone Laboratories Inc., Logan, UT, cat. SH30070.03HI), 389 ng/mL hydrocortisone (Sigma-Aldrich, cat. H4001), 9.7 ng/mL human EGF recombinant protein (Invitrogen, cat. PHG0313), 23.4 microg/mL adenine (Sigma-Aldrich, cat. A2786), 97.3 U/mL penicillin-streptomycin (Invitrogen, cat. 15140122), 1.9 mM L-glutamine (Invitrogen, cat. 25030081), and 9.7 microM Y-27632 dihydrochloride (Tocris Bioscience, Bristol, United Kingdom, cat. 1254). The PDCs were cultured in complete DMEM/F12 media without 10 microM Y-27632 dihydrochloride for at least two passages prior to the screen. The established cell lines NCI-H1341 and […] were cultured in DMEM/F-12, HEPES (Invitrogen, cat. 11330032), 5% defined fetal bovine serum (HyClone Laboratories Inc., cat. SH30070.03), ITS premix universal culture supplement [insulin (5 microg/mL), transferrin (5 microg/mL), and selenious acid (5 ng/mL)] […]

[1] = second compound 0.1 µM, first compound 0.0316 µM
[2] = second compound 0.1 µM, first compound 0.1 µM
[3] = second compound 0.316 µM, first compound 0.0316 µM
[4] = second compound 0.316 µM, first compound 0.1 µM
[5] = second compound 1 µM, first compound 0.0316 µM
[6] = second compound 1 µM, first compound 0.1 µM
[7] = second compound 3.16 µM, first compound 0.0316 µM
[8] = second compound 3.16 µM, first compound 0.1 µM
[9] = second compound 10 µM, first compound 0.0316 µM
[10] = second compound 10 µM, first compound 0.1 µM
[11] = second compound 0.1 µM, first compound 0.316 µM
[12] = second compound 0.1 µM, first compound 1 µM
[13] = second compound 0.1 µM, first compound 3.16 µM
[14] = second compound 0.1 µM, first compound 10 µM
[15] = second compound 0.316 µM, first compound 0.316 µM
[16] = second compound 0.316 µM, first compound 1 µM
[17] = second compound 0.316 µM, first compound 3.16 µM
[18] = second compound 0.316 µM, first compound 10 µM
[19] = second compound 1 µM, first compound 0.316 µM
[20] = second compound 1 µM, first compound 1 µM
[21] = second compound 1 µM, first compound 3.16 µM
[22] = second compound 1 µM, first compound 10 µM
[23] = second compound 3.16 µM, first compound 0.316 µM
[24] = second compound 3.16 µM, first compound 1 µM
[25] = second compound 3.16 µM, first compound 3.16 µM
[26] = second compound 3.16 µM, first compound 10 µM
[27] = second compound 10 µM, first compound 0.316 µM
[28] = second compound 10 µM, first compound 1 µM
[29] = second compound 10 µM, first compound 3.16 µM
[30] = second compound 10 µM, first compound 10 µM

Row | Structure (SMILES) | IC50 (second compound 0.1 µM) [nM] | IC50 (second compound 0.316 µM) [nM] | IC50 (second compound 1 µM) [nM] | IC50 (second compound 3.16 µM) [nM] | IC50 (second compound 10 µM) [nM] | viability, T/C [1] [%] | viability, T/C [2] [%] | viability, T/C [3] [%] | viability, T/C [4] [%] | viability, T/C [5] [%] | viability, T/C [6] [%] | viability, T/C [7] [%] | viability, T/C [8] [%] | viability, T/C [9] [%] | viability, T/C [10] [%] | viability, T/C [11] [%] | viability, T/C [12] [%] | viability, T/C [13] [%] | viability, T/C [14] [%] | viability, T/C [15] [%] | further results
1 | CC[C@@]1(O)C(=O)OCc2c1cc1n(c2=O)Cc2cc3c(CN(C)C)c(O)ccc3nc2-1 + CC(CO)NC(=O)c1cc(-c2ccc(Cl)cc2)nn(-c2cnn(C)c2)c1=O | 59 | 57.6 | 60.8 | 53.6 | 51.8 | 90.9 | 15.2 | 89.9 | 13.3 | 95.4 | 15.2 | 80.9 | 13.4 | 76.9 | 14.1 |  |  |  |  |  | viability, T/C (second compound 0.1 µM, first compound 0.000316 µM): 112%; viability, T/C (second compound 0.1 µM, first compound 0.001 µM): 119%; viability, T/C (second compound 0.1 µM, first compound 0.00316 µM): 111%; viability, T/C (second compound 0.1 µM, first compound 0.01 µM): 115%; viability, T/C (second compound 0.316 µM, first compound 0.000316 µM): 106%; viability, T/C (second compound 0.316 µM, first compound 0.001 µM): 114%; viability, T/C (second compound 0.316 µM, first compound 0.00316 µM): 112%; viability, T/C (second compound 0.316 µM, first compound 0.01 µM): 109%; viability, T/C (second compound 1 µM, first compound 0.000316 µM): 113%; viability, T/C (second compound 1 µM, first compound 0.001 µM): 107%; viability, T/C (second compound 1 µM, first compound 0.00316 µM): 108%; viability, T/C (second compound 1 µM, first compound 0.01 µM): 104%; viability, T/C (second compound 3.16 µM, first compound 0.000316 µM): 113%; viability, T/C (second compound 3.16 µM, first compound 0.001 µM): 116%; viability, T/C (second compound 3.16 µM, first compound 0.00316 µM): 109%; viability, T/C (second compound 3.16 µM, first compound 0.01 µM): 109%; viability, T/C (second compound 10 µM, first compound 0.000316 µM): 118%; viability, T/C (second compound 10 µM, first compound 0.001 µM): 116%; viability, T/C (second compound 10 µM, first compound 0.00316 µM): 118%; viability, T/C (second compound 10 µM, first compound 0.01 µM): 113%
2 | COc1cccc2c1C(=O)c1c(O)c3c(c(O)c1C2=O)CC(O)(C(=O)CO)CC3OC1CC(N)C(O)C(C)O1 (stereo not given) + Cc1cncc(-c2nc(NCCc3c[nH]c4ccccc34)c3ncn(C(C)C)c3n2)c1 | 158 | 145 | 133 | < 31.6 | < 31.6 | 82.8 | 63.1 | 90 | 61.4 | 62.5 | 60.2 | 39.4 | 25.2 | 1.2 | 0.79 | 30.3 | 8.19 | 0.99 | 0.52 | 25.7 | viability, T/C [16]: 7.63%; viability, T/C [17]: 0.45%; viability, T/C [18]: 0.37%; viability, T/C [19]: 21.3%; viability, T/C [20]: 5.04%; viability, T/C [21]: 0.27%; viability, T/C [22]: 0.34%; viability, T/C [23]: 7.66%; viability, T/C [24]: 2.14%; viability, T/C [25]: 0.12%; viability, T/C [26]: 0.3%; viability, T/C [27]: 1.52%; viability, T/C [28]: 0.23%; viability, T/C [29]: 0.21%; viability, T/C [30]: 1.26%
3 | O=C(c1cc(Cc2n[nH]c(=O)c3ccccc23)ccc1F)N1CCN(C(=O)C2CC2)CC1 + CC(CO)NC(=O)c1cc(-c2ccc(Cl)cc2)nn(-c2cnn(C)c2)c1=O | > 10000 | > 10000 | > 10000 | > 10000 | > 10000 | 96.1 | 101 | 100 | 102 | 98.7 | 102 | 97.3 | 109 | 113 | 107 | 98.8 | 102 | 102 | 91.5 | 97.9 | viability, T/C [16]: 101%; viability, T/C [17]: 98.8%; viability, T/C [18]: 98.9%; viability, T/C [19]: 99.9%; viability, T/C [20]: 103%; viability, T/C [21]: 101%; viability, T/C [22]: 99%; viability, T/C [23]: 95.3%; viability, T/C [24]: 104%; viability, T/C [25]: 99.8%; viability, T/C [26]: 89.9%; viability, T/C [27]: 108%; viability, T/C [28]: 114%; viability, T/C [29]: 107%; viability, T/C [30]: 90.9%
